{Fluorescein} = fluorescein label (binding site for anti-fluorescein Fab-HRP); {Biotin} = biotin (capture probe anchor)
Tested on: bacterial 16S rRNA
Test: Species specificity of short probe pairs, 16 sensor array at ambient temperature (Example 5)
Format: binding
Conditions: for Species detected: ambient temperature hybridization; for Species not detected: * cross-reactivity at a level significantly less than with the target species

In the case of “KP436C (11 mer)/KP425D (11 mer): Klebsiella pneumoniae probe pair, SEQ ID NO: 48 and 49 (DNA 1 CTYAHCGCCTT; DNA 2 CCTCCCCGCTG; DNA 1: 5' {Biotin}, sugars by position, backbone and the base at N not given here; DNA 2: 3' {Fluorescein}, sugars by position and backbone not given here; listed as Klebsiella pneumoniae)”, the Species detected is reported as “Kp” and the Species not detected (ambient temperature) is reported as “Ea, Ec, Ef, Pa, Pm”.
For “EB1275C (23 mer)/EB1252C (23 mer): Enterobacteriaceae probe pair, SEQ ID NO: 54 and 55 (DNA 1 ACTTTATGAGGTCCGCTTGCTCT; DNA 2 CGCGAGGTCGCCTTCCTTTGTAT; DNA 1: DNA, 5' {Biotin}, backbone and methylation of C not given here; DNA 2: DNA, 3' {Fluorescein}, backbone and methylation of C not given here; listed as Enterobacter sp.)”, the Species detected was “Ec, Kp, Pm, Ea” and the Species not detected (ambient temperature) was “Pa, Ef”.
With “EF187C (20 mer)/EF167D (20 mer): Enterococcus spp. probe pair, SEQ ID NO: 52 and 53 (DNA 1 ACCGCGGGTCCATCCATCAG; DNA 2 CGACACCCGAAAGCGCCTTT; DNA 1: 5' {Biotin}, sugars by position and backbone not given here; DNA 2: 3' {Fluorescein}, sugars by position and backbone not given here; listed as Enterococcus sp.)” the Species detected was “Ef” and the Species not detected (ambient temperature) was “Ea, Ec, Kp, Pa, Pm”.
For “PM197C (21 mer)/PM176D (21 mer): Proteus mirabilis probe pair, SEQ ID NO: 46 and 47 (DNA 1 CATCCGATAGTGCAAGGTCCG; DNA 2 AAGAGCCCCTGCTTTGGTCCG; DNA 1: 5' {Biotin}, sugars by position and backbone not given here; DNA 2: 3' {Fluorescein}, sugars by position and backbone not given here; listed as Proteus mirabilis)”, the Species detected was “Pm” and the Species not detected (ambient temperature) was “Ea, Ec, Ef, Kp, Pa”.
For “PA122C (15 mer)/PA107D (15 mer): Pseudomonas aeruginosa probe pair, SEQ ID NO: 50 and 51 (DNA 1 CCCACTTTCTCCCTC; DNA 2 AGGACGTATGCGGTA; DNA 1: 5' {Biotin}, sugars by position and backbone not given here; DNA 2: 3' {Fluorescein}, sugars by position and backbone not given here; listed as Pseudomonas aeruginosa)”, the “cross-reactivity with P. mirabilis 16S” value (ambient temperature) was “Weak cross-reactivity”, the Species detected was “Pa” and the Species not detected (ambient temperature) was “Ea, Ec, Ef, Kp, Pm*”.

Reference: patent US7763426B2, “Probes and methods for detection of Escheridia coli and antibiotic resistance” (priority 2004, dated 2010)
